In US20150087673A1, “METHODS FOR USING AND BIOMARKERS FOR AMPK-ACTIVATING COMPOUNDS” (RIGEL PHARMACEUTICALS, INC., priority 2013, published 2015) one finds EC50 data, which are given here for 23 molecules.

Molecules are shown by their SMILES.

In this experiment the test system is AMPK. The experiment is described as follows: AMPK activation assay (enzyme-linked immunosorbent assay). The class given is cell-based. A digest of the protocol: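 Kit-based immunoassay; compounds screened as activators; standard reagents and protocol.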
In the case of `COc1cccc(CN2CCC(NC(=O)c3ccc(C(=O)N4CCC(Oc5ccc(S(C)(=O)=O)cc5)CC4)nc3)CC2)c1` [Compound 238, N-(1-(3-methoxybenzyl)piperidin-4-yl)-6-(4-(4-(methylsulfonyl)phenoxy)piperidine-1-carbonyl)nicotinamide], the EC50 was 1 to 5 µM. The figure for `O=C(NC1CCN(Cc2ccc(N3CCCC3)cc2)CC1)c1ccc(C(=O)N2CCC(C(=O)c3ccc(N4CCCC4)cc3)CC2)nc1` [Compound 444, 6-(4-(4-(pyrrolidin-1-yl)benzoyl)piperidine-1-carbonyl)-N-(1-(4-(pyrrolidin-1-yl)benzyl)piperidin-4-yl)nicotinamide] is below 0.5 µM; for `N#Cc1ccc(O[C@H]2CC[C@@H](NC(=O)c3ccc(C(=O)N4CCN(Cc5ccc(F)cc5)CC4)nc3)CC2)cc1` [Compound 332, N-((cis)-4-(4-cyanophenoxy)cyclohexyl)-6-(4-(4-fluorobenzyl)piperazine-1-carbonyl)nicotinamide] it is below 0.5 µM; for `COc1ccc(C(=O)C2CCN(C(=O)c3ccc(C(=O)NC4CCN(Cc5ccc(N6CCCC6)cc5)CC4)nc3)CC2)cc1` [Compound 194, 5-(4-(4-methoxybenzoyl)piperidine-1-carbonyl)-N-(1-(4-(pyrrolidin-1-yl)benzyl)piperidin-4-yl)picolinamide] it is below 0.5 µM.

As for `O=C(c1ccc(Nc2ccc(Cc3ccccc3)cc2)nc1)N1CCN(Cc2ccc(F)cc2)CC1` [Compound 30], the EC50 fell in the range of 1 to 5 µM. The figure for `COc1ccc(N2CCC(NC(=O)c3ccc(C(=O)N4CCN(Cc5ccc(F)cc5)CC4)nc3)CC2)cc1` [Compound 405, 6-(4-(4-fluorobenzyl)piperazine-1-carbonyl)-N-(1-(4-methoxyphenyl)piperidin-4-yl) nicotinamide] is below 0.5 µM. The figure for `O=C(NC1CCN(Cc2cc(F)cc(F)c2)CC1)c1ccc(C(=O)N2CC(OCc3ccc(F)cc3)C2)cn1` [Compound 308, N-(1-(3,5-difluorobenzyl)piperidin-4-yl)-5-(3-(4-fluorobenzyloxy)azetidine-1-carbonyl)picolinamide] is below 0.5 µM. The molecule `COc1ccc(CN2CCC(NC(=O)c3ccc(C(=O)N4CCC(C(=O)c5ccc(OC)cc5)CC4)nc3)CC2)cc1` [Compound 318, 6-(4-(4-methoxybenzoyl)piperidine-1-carbonyl)-N-(1-(4-methoxybenzyl)piperidin-4-yl) nicotinamide] displayed a half-maximal effective concentration (EC50) below 0.5 µM. For the molecule `CS(=O)(=O)c1ccc(C(=O)C2CCN(C(=O)c3ccc(C(=O)NC4CCN(Cc5ccc(N6CCCC6)cc5)CC4)cn3)CC2)cc1` [Compound 229, 6-(4-(4-(methylsulfonyl)benzoyl)piperidine-1-carbonyl)-N-(1-(4-(pyrrolidin-1-yl)benzyl)piperidin-4-yl)nicotinamide], the EC50 is 1 to 5 µM. `COc1ccc(C(=O)C2CCN(C(=O)c3ccc(C(=O)N[C@H]4CC[C@@H](Oc5ccc(C#N)cc5)CC4)nc3)CC2)cc1` [Compound 171, N-((cis)-4-(4-cyanophenoxy)cyclohexyl)-5-(4-(4-methoxybenzoyl)piperidine-1-carbonyl)picolinamide] came in with an EC50 below 0.5 µM. As to `N#Cc1ccc(CN2CCC(NC(=O)c3cnc(C(=O)N4CCC(Oc5ccc(C(F)(F)F)cc5)CC4)cn3)CC2)cc1` [Compound 212, N-(1-(4-cyanobenzyl)piperidin-4-yl)-5-(4-(4-(trifluoromethyl)phenoxy)piperidine-1-carbonyl)pyrazine-2-carboxamide], the EC50 was below 0.5 µM. The figure for `N#Cc1ccc(CN2CCC(NC(=O)c3ccc(C(=O)N4CC[C@H](Oc5ccc(C#N)cc5)[C@@H](F)C4)cn3)CC2)cc1` (relative stereo) [Compound 279, N-(1-(4-cyanobenzyl)piperidin-4-yl)-5-((trans)-4-(4-cyanophenoxy)-3-fluoropiperidine-1-carbonyl)picolinamide] is below 0.5 µM; for `N#Cc1ccc(CN2CCC(NC(=O)c3ccc(N4CCN(Cc5ccc(F)cc5)CC4)nn3)CC2)cc1` [Compound 491, N-(1-(4-cyanobenzyl)piperidin-4-yl)-6-(4-(4-fluorobenzyl)piperazin-1-yl)pyridazine-3-carboxamide] it is 1 to 5 µM. For `N#Cc1ccc(OC2CCN(C(=O)c3ccc(C(=O)NC4CCN(Cc5cc(F)cc(F)c5)CC4)nc3)CC2)cc1` [Compound 289, 5-(4-(4-cyanophenoxy)piperidine-1-carbonyl)-N-(1-(3,5-difluorobenzyl)piperidin-4-yl)picolinamide], the EC50 is below 0.5 µM. In the case of `COc1ccc(C(=O)C2CCN(C(=O)c3ccc(C(=O)NC4CCN(Cc5ccc(C#N)cc5)CC4(F)F)cn3)CC2)cc1` (centres unmarked) [Compound 498, N-(1-(4-cyanobenzyl)-3,3-difluoropiperidin-4-yl)-6-(4-(4-methoxybenzoyl)piperidine-1-carbonyl)nicotinamide] it was below 0.5 µM. In the case of `N#Cc1ccc(CC2CCC(NC(=O)c3cccc(C(=O)N4CCN(Cc5ccc(F)cc5)CC4)n3)CC2)cc1` (centres unmarked) [Compound 99, N-(4-(4-cyanobenzyl)cyclohexyl)-6-(4-(4-fluorobenzyl)piperazine-1-carbonyl)picolinamide] it was 5 to 10 µM; in that of `CC(=O)c1ccc(OC2CCN(C(=O)c3ccc(C(=O)NC4CCN(Cc5ccc(C#N)cc5)CC4)nn3)CC2)cc1` [Compound 437, 6-(4-(4-acetylphenoxy)piperidine-1-carbonyl)-N-(1-(4-cyanobenzyl)piperidin-4-yl)pyridazine-3-carboxamide], below 0.5 µM; in that of `N#Cc1ccc(O[C@H]2CC[C@H](NC(=O)c3ccc(C(=O)N4CCC(C(=O)c5ccc(F)cc5)CC4)cn3)CC2)cc1` [Compound 168, N-((trans)-4-(4-cyanophenoxy)cyclohexyl)-5-(4-(4-fluorobenzoyl)piperidine-1-carbonyl)picolinamide], below 0.5 µM. The figure for `CC(=O)c1ccc(Oc2ccc(NC(=O)c3ccc(C(=O)N4CCC(Oc5ccc(S(C)(=O)=O)cc5)CC4)nc3)cn2)cc1` [Compound 485, N-(6-(4-acetylphenoxy)pyridin-3-yl)-6-(4-(4-(methylsulfonyl)phenoxy)piperidine-1-carbonyl)nicotinamide] is below 0.5 µM; for `N#Cc1ccc(OC2CCN(C(=O)c3ccc(C(=O)N[C@H]4CC[C@@H](Oc5ccc(C(F)(F)F)cc5)CC4)nc3)CC2)cc1` [Compound 193, 5-(4-(4-cyanophenoxy)piperidine-1-carbonyl)-N-((cis)-4-(4-(trifluoromethyl)phenoxy)cyclohexyl) picolinamide] it is below 0.5 µM; for `COc1ccc(OC2CCN(C(=O)c3ccc(C(=O)N[C@H]4CC[C@@H](Oc5ccc(C#N)cc5)CC4)nc3)CC2)cc1` [Compound 174, N-((cis)-4-(4-cyanophenoxy)cyclohexyl)-5-(4-(4-methoxyphenoxy)piperidine-1-carbonyl)picolinamide] it is below 0.5 µM. With `CS(=O)(=O)c1ccc(C(=O)C2CCN(C(=O)c3ccc(C(=O)NC4CCN(Cc5ccc(N6CCCC6)cc5)CC4)nc3)CC2)cc1` [Compound 233, 5-(4-(4-(methylsulfonyl)benzoyl)piperidine-1-carbonyl)-N-(1-(4-(pyrrolidin-1-yl)benzyl)piperidin-4-yl)picolinamide], the EC50 was below 0.5 µM. `N#Cc1ccc(O[C@H]2CC[C@@H](NC(=O)c3ccc(C(=O)N4CC[C@H](Oc5ccc(F)cc5)C4)cn3)CC2)cc1` [Compound 176, N-((cis)-4-(4-cyanophenoxy)cyclohexyl)-5-((S)-3-(4-fluorophenoxy)pyrrolidine-1-carbonyl)picolinamide] showed an EC50 of 1 to 5 µM.

As usually defined, the EC50 is the concentration that produces a half-maximal response.
